ChEMBL document CHEMBL5608235, “Tricyclic Benzo[1,3]oxazinyloxazolidinones as Potent Antibacterial Agents against Drug-Resistant Pathogens” (J Med Chem, 2024)
In brackets after ≈: the same amount, converted by molar mass. Activity calls are given as the source filed them. No cut-off for these calls is given here.

How the values were obtained:
[1] = Drug concentration in BALB/c mouse plasma at 10 mg/kg,po administration measured within 15 mins by LC-MS/MS analysis; assay type: ADME, organism-based
[2] = test system: Staphylococcus epidermidis; assay: Antibacterial activity against methicillin resistant Staphylococcus epidermidis clinical isolate 20-2 assessed as inhibition of bacterial growth incubated for 7 days by alamar blue assay; assay type: functional; details: clinical isolate 20-2, 168 h, time 7 day
Cell membrane [3] = assay: Disruption of cell membrane in methicillin resistant Staphylococcus aureus ATCC 33592 assessed as change in morphology at 0.5 ug/ml incubated for 30 mins by Scanning electron microscopic analysis; assay type: cell membranes; details: dose 0.5 µg/ml
[4] = MRT (0 to t) in BALB/c mouse at 1 mg/kg,iv administration measured upto 24 hrs by LC-MS/MS analysis; assay type: ADME, organism-based; details: in vivo
Staphylococcus aureus [5] = assay: Antibacterial activity against methicillin resistant Staphylococcus aureus ATCC 33592 infected in cyclophosphamide-induced immunosuppressed Kunming mouse assessed as appearance of inflated alveoli in lung at 50 mg/kg,po administration measured after 24 hrs by hematoxylin and eosin staining based microscopy; assay type: functional, organism-based
[6] = Clearance in BALB/c mouse at 1 mg/kg,iv administration measured upto 24 hrs by LC-MS/MS analysis; assay type: ADME, organism-based; details: in vivo
Staphylococcus aureus [7] = assay: Bacteriostatic activity against methicillin resistant Staphylococcus aureus ATCC 33592 at 1 times MIC incubated for 2 to 24 hrs by time-kill assay; assay type: functional, organism-based; details: time 2-24 hrs
Staphylococcus aureus [8] = assay: Induction of resistant development in methicillin resistant Staphylococcus aureus ATCC 33592 assessed as fold increase in MIC at 0.5 to 4 ug/ml measured after 30 serial passages by broth microdilution analysis; assay type: functional; details: dose 0.5-4 µg/ml
Staphylococcus aureus [9] = assay: Inhibition of biofilm formation in Staphylococcus aureus ATCC 29213 at 1 to 10 ug/ml incubated for 48 hrs by crystal violet staining based assay; assay type: functional, organism-based; details: dose 1-10 µg/ml
Staphylococcus aureus [10] = assay: Antibacterial activity against methicillin resistant Staphylococcus aureus ATCC 33592 infected in cyclophosphamide-induced immunosuppressed Kunming mouse by measuring survival rate of mouse at 25 mg/kg,po administration measured for 7 days; assay type: functional; details: ATCC 33592, 168 h, time 7 day
Cell membrane [11] = assay: Disruption of cell membrane in methicillin resistant Staphylococcus aureus ATCC 33592 assessed as cell shrinkage at 0.5 ug/ml incubated for 6 hrs by Scanning electron microscopic analysis; assay type: cell membranes; details: dose 0.5 µg/ml
Staphylococcus aureus [12] = assay: Antibacterial activity against methicillin resistant Staphylococcus aureus ATCC 33592 infected in cyclophosphamide-induced immunosuppressed Kunming mouse assessed as reduction in pigment deposition in spleen at 50 mg/kg,po administration measured after 24 hrs by hematoxylin and eosin staining based microscopy; assay type: functional, organism-based
Staphylococcus aureus [13] = assay: Antibacterial activity against methicillin resistant Staphylococcus aureus ATCC 33592 infected in cyclophosphamide-induced immunosuppressed Kunming mouse assessed as reduction in histopathological change in spleen at 10 mg/kg,po administration measured after 24 hrs by hematoxylin and eosin staining based microscopy; assay type: functional, organism-based
Staphylococcus aureus [14] = assay: Antibacterial activity against methicillin resistant Staphylococcus aureus clinical isolate 20-2 assessed as inhibition of bacterial growth incubated for 7 days by alamar blue assay; assay type: functional; details: clinical isolate 20-2, 168 h, time 7 day
Staphylococcus aureus [15] = assay: Antibacterial activity against methicillin resistant Staphylococcus aureus ATCC 33592 infected in cyclophosphamide-induced immunosuppressed Kunming mouse assessed as reduction in bacterial load in kidney at 25 to 50 mg/kg,po administration measured after 24 hrs by hematoxylin and eosin staining based microscopy; assay type: functional, organism-based; details: dose 25-50 mg/kg
Staphylococcus aureus [16] = assay: Antibacterial activity against methicillin resistant Staphylococcus aureus ATCC 33592 infected in cyclophosphamide-induced immunosuppressed Kunming mouse assessed as reduction in congestion in spleen at 50 mg/kg,po administration measured after 24 hrs by hematoxylin and eosin staining based microscopy; assay type: functional, organism-based
[17] = Metabolic stability in ICR mouse liver microsomes assessed as substrate remaining at 10 uM incubated for 60 mins in presence of NADPH by LC-MS/MS analysis; assay type: ADME, Microsome; details: read-out: Stability
[18] = test system: Staphylococcus epidermidis; assay: Antibacterial activity against methicillin resistant Staphylococcus epidermidis clinical isolate 20-1 assessed as inhibition of bacterial growth incubated for 7 days by alamar blue assay; assay type: functional; details: clinical isolate 20-1, 168 h, time 7 day
Staphylococcus aureus [19] = assay: Antibacterial activity against methicillin resistant Staphylococcus aureus ATCC 33592 infected in cyclophosphamide-induced immunosuppressed Kunming mouse assessed as increase in lymphocytes at 25 to 50 mg/kg,po administration measured after 7 days by Giemsa staining based analysis; assay type: functional, organism-based; details: dose 25-50 mg/kg, time 7.0 day
Cell membrane [20] = assay: Disruption of cell membrane integrity in methicillin resistant Staphylococcus aureus ATCC 33592 assessed as increase in red fluorescence at 1 ug/ml incubated for 1 hr by […] and propidium iodide double staining based confocal microscopic analysis; assay type: cell membranes; details: dose 1.0 µg/ml
Cell membrane [21] = assay: Disruption of cell membrane integrity in Staphylococcus aureus ATCC 25923 assessed as increase in blue fluorescence at 1 ug/ml incubated for 1 hr by […] and propidium iodide double staining based confocal microscopic analysis; assay type: cell membranes; details: dose 1.0 µg/ml
[22] = MRT (0 to t) in BALB/c mouse at 10 mg/kg,po administration measured upto 24 hrs by LC-MS/MS analysis; assay type: ADME, organism-based; details: in vivo
[23] = MRT (0 to infinity) in BALB/c mouse at 10 mg/kg,po administration measured upto 24 hrs by LC-MS/MS analysis; assay type: ADME, organism-based; details: in vivo
[24] = Terminal half life in BALB/c mouse at 1 mg/kg,iv administration measured upto 24 hrs by LC-MS/MS analysis; assay type: ADME, organism-based; details: in vivo, read-out: beta t1/2 (converted)
Cell membrane [25] = assay: Disruption of cell membrane integrity in methicillin resistant Staphylococcus aureus ATCC 33592 assessed as increase in blue fluorescence at 0.5 ug/ml incubated for 1 hr by […] and propidium iodide double staining based confocal microscopic analysis; assay type: cell membranes; details: dose 0.5 µg/ml
Enterococcus faecalis = assay: Antibacterial activity against Linezolid resistant Enterococcus faecalis clinical isolate 20-1 assessed as inhibition of bacterial growth incubated for 7 days by alamar blue assay; assay type: functional; details: clinical isolate 20-1, 168 h, time 7 day
Staphylococcus aureus [26] = assay: Antibacterial activity against methicillin resistant Staphylococcus aureus ATCC 33592 infected in cyclophosphamide-induced immunosuppressed Kunming mouse assessed as decrease in IL-1beta level at po administration measured after 24 hrs by ELISA; assay type: functional, organism-based
Cell membrane [27] = assay: Disruption of cell membrane integrity in methicillin resistant Staphylococcus aureus ATCC 33592 assessed as increase in blue fluorescence at 1 ug/ml incubated for 1 hr by […] and propidium iodide double staining based confocal microscopic analysis; assay type: cell membranes; details: dose 1.0 µg/ml
[28] = AUC (0 to t) in BALB/c mouse at 10 mg/kg,po administration measured upto 24 hrs by LC-MS/MS analysis; assay type: ADME, organism-based; details: in vivo
Staphylococcus aureus [29] = assay: Antibacterial activity against methicillin resistant Staphylococcus aureus ATCC 33592 infected in cyclophosphamide-induced immunosuppressed Kunming mouse by measuring survival rate of mouse at 10 mg/kg,po administration measured for 7 days; assay type: functional; details: ATCC 33592, 168 h, time 7 day
Staphylococcus aureus [30] = assay: Antibacterial activity against methicillin resistant Staphylococcus aureus ATCC 33592 infected in cyclophosphamide-induced immunosuppressed Kunming mouse assessed as reduction in bacterial load in spleen at 10 to 50 mg/kg,po administration measured after 24 hrs by hematoxylin and eosin staining based microscopy; assay type: functional, organism-based; details: dose 10-50 mg/kg

CC(=O)NC[C@@H]1OC(=O)N2Cc3cc(-c4ccc(C#N)cc4)c(F)cc3O[C@@H]12
concentration at 0.25 h [1]: 1000 ng/mL
MIC [2]: 0.06 µg/mL (≈ 0.157 µM)
Activity (Cell membrane [3]): Active
MRT last at 24 h [4]: 6.6 h
Activity (Staphylococcus aureus [5]): Active
clearance [6]: 2.92 mL/min/kg
Activity (Staphylococcus aureus [7]): Active
fold change (FC) (Staphylococcus aureus [8]): 8
inhibition (Staphylococcus aureus [9]): Active
survival at 25 mg/kg (Staphylococcus aureus [10]): 100%
Activity (Cell membrane [11]): Active
Activity (Staphylococcus aureus [12]): Active
Activity (Staphylococcus aureus [13]): Active
MIC (Staphylococcus aureus [14]): 0.5 µg/mL (≈ 1.31 µM)
Activity (Staphylococcus aureus [15]): Active
Activity (Staphylococcus aureus [16]): Active
remaining at 1 h, 10 µM [17]: 100%
MIC [18]: 0.06 µg/mL (≈ 0.157 µM)
Activity (Staphylococcus aureus [19]): Active
Activity (Cell membrane [20]): Active
Activity (Cell membrane [21]): Active
MRT last at 24 h [22]: 9.3 h
MRT inf [23]: 17.3 h
half-life [24]: 7.9 h
Activity (Cell membrane [25]): Active
MIC (Enterococcus faecalis): 1 µg/mL (≈ 2.62 µM)
Activity (Staphylococcus aureus [26]): Dose-Dependent Effect
Activity (Cell membrane [27]): Active
AUC(0-t) at 24 h [28]: 62500 ng·h/mL
survival at 10 mg/kg (Staphylococcus aureus [29]): 85.7%
Activity (Staphylococcus aureus [30]): Active
